Assays:
[1] = system: Pseudomonas aeruginosa PA14; assay: Inhibition of quorum sensing-regulated biofilm formation in Pseudomonas aeruginosa PA14 at 2 mM after overnight incubation by crystal violet staining based assay relative to control
Escherichia coli [2] = assay: Growth inhibition of Escherichia coli MT102 at 2 mM after 8 hrs relative to control; conditions: MT102, 8 h, read-out: GI
Escherichia coli [3] = assay: Growth inhibition of Escherichia coli MT102 at 500 uM after 8 hrs relative to control; conditions: MT102, 8 h, read-out: GI
Escherichia coli [4] = assay: Inhibition of LuxR-dependent quorum sensing activity in Escherichia coli MT102 harboring pJBA132 assessed as inhibition of OHHL-induced GFP expression at 2 mM measured after 24 hrs by fluorescence assay relative to control
Escherichia coli [5] = assay: Growth inhibition of Escherichia coli MT102 at 2 mM after 24 hrs relative to control; conditions: MT102, 24 h, read-out: GI
[6] = system: Pseudomonas aeruginosa PA14; assay: Inhibition of quorum sensing-regulated pyocyanin production in Pseudomonas aeruginosa PA14 at 2 mM after 24 hrs relative to control
Pseudomonas aeruginosa [7] = assay: Growth inhibition of Pseudomonas aeruginosa MH602 at 500 uM after 8 hrs relative to control; conditions: MH602, 8 h, read-out: GI
Pseudomonas aeruginosa [8] = assay: Inhibition of LasR-dependent quorum sensing activity in Pseudomonas aeruginosa MH602 harboring GFP-fused […] LasB promoter assessed as inhibition of 3-oxo-dodecanoyl HSL-induced GFP expression at 2 mM measured after 24 hrs by fluorescence assay relative to control
Pseudomonas aeruginosa [9] = assay: Growth inhibition of Pseudomonas aeruginosa MH602 at 2 mM after 24 hrs relative to control; conditions: MH602, 24 h, read-out: GI
Pseudomonas aeruginosa [10] = assay: Growth inhibition of Pseudomonas aeruginosa MH602 at 2 mM after 8 hrs relative to control; conditions: MH602, 8 h, read-out: GI
Pseudomonas aeruginosa [11] = assay: Inhibition of LasR-dependent quorum sensing activity in Pseudomonas aeruginosa MH602 harboring GFP-fused […] LasB promoter assessed as inhibition of 3-oxo-dodecanoyl HSL-induced GFP expression at 500 uM measured after 24 hrs by fluorescence assay relative to control
Pseudomonas aeruginosa [12] = assay: Growth inhibition of Pseudomonas aeruginosa PA14 at 2 mM after 24 hrs relative to control; conditions: 2000 µM
Pseudomonas aeruginosa [13] = assay: Inhibition of LasR-dependent quorum sensing activity in Pseudomonas aeruginosa MH602 harboring GFP-fused […] LasB promoter assessed as inhibition of 3-oxo-dodecanoyl HSL-induced GFP expression at 1 mM measured after 24 hrs by fluorescence assay relative to control
Pseudomonas aeruginosa [14] = assay: Inhibition of LasR-dependent quorum sensing activity in Pseudomonas aeruginosa MH602 harboring GFP-fused […] LasB promoter assessed as inhibition of 3-oxo-dodecanoyl HSL-induced GFP expression at 1 mM measured after 8 hrs by fluorescence assay relative to control
Pseudomonas aeruginosa [15] = assay: Growth inhibition of Pseudomonas aeruginosa MH602 at 500 uM after 24 hrs relative to control; conditions: MH602, 24 h, read-out: GI
Escherichia coli [16] = assay: Growth inhibition of Escherichia coli MT102 at 1 mM after 24 hrs relative to control; conditions: MT102, 24 h, read-out: GI
Pseudomonas aeruginosa [17] = assay: Growth inhibition of Pseudomonas aeruginosa MH602 at 1 mM after 24 hrs relative to control; conditions: MH602, 24 h, read-out: GI
Escherichia coli [18] = assay: Growth inhibition of Escherichia coli MT102 at 1 mM after 8 hrs relative to control; conditions: MT102, 8 h, read-out: GI
Pseudomonas aeruginosa [19] = assay: Growth inhibition of Pseudomonas aeruginosa MH602 at 1 mM after 8 hrs relative to control; conditions: MH602, 8 h, read-out: GI
Escherichia coli [20] = assay: Growth inhibition of Escherichia coli MT102 at 500 uM after 24 hrs relative to control; conditions: MT102, 24 h, read-out: GI
Escherichia coli [21] = assay: Inhibition of LuxR-dependent quorum sensing activity in Escherichia coli MT102 harboring pJBA132 assessed as inhibition of OHHL-induced GFP expression at 1 mM measured after 8 hrs by fluorescence assay relative to control
Pseudomonas aeruginosa [22] = assay: Inhibition of LasR-dependent quorum sensing activity in Pseudomonas aeruginosa MH602 harboring GFP-fused […] LasB promoter assessed as inhibition of 3-oxo-dodecanoyl HSL-induced GFP expression at 2 mM measured after 8 hrs by fluorescence assay relative to control
Pseudomonas aeruginosa [23] = assay: Inhibition of LasR-dependent quorum sensing activity in Pseudomonas aeruginosa MH602 harboring GFP-fused […] LasB promoter assessed as inhibition of 3-oxo-dodecanoyl HSL-induced GFP expression at 500 uM measured after 8 hrs by fluorescence assay relative to control
Escherichia coli [24] = assay: Inhibition of LuxR-dependent quorum sensing activity in Escherichia coli MT102 harboring pJBA132 assessed as inhibition of OHHL-induced GFP expression at 1 mM measured after 24 hrs by fluorescence assay relative to control
Escherichia coli [25] = assay: Inhibition of LuxR-dependent quorum sensing activity in Escherichia coli MT102 harboring pJBA132 assessed as inhibition of OHHL-induced GFP expression at 2 mM measured after 8 hrs by fluorescence assay relative to control
Escherichia coli [26] = assay: Inhibition of LuxR-dependent quorum sensing activity in Escherichia coli MT102 harboring pJBA132 assessed as inhibition of OHHL-induced GFP expression at 500 uM measured after 8 hrs by fluorescence assay relative to control

Compound	inhibition [1] [%]	inhibition at 2000 µM (Escherichia coli [2]) [%]	inhibition at 500 µM (Escherichia coli [3]) [%]	inhibition (Escherichia coli [4]) [%]	inhibition at 2000 µM (Escherichia coli [5]) [%]	inhibition at 500 µM (Pseudomonas aeruginosa [7]) [%]	inhibition (Pseudomonas aeruginosa [8]) [%]	inhibition at 2000 µM (Pseudomonas aeruginosa [9]) [%]	inhibition at 2000 µM (Pseudomonas aeruginosa [10]) [%]	growth inhibition (GI) (Pseudomonas aeruginosa [12])	inhibition (Pseudomonas aeruginosa [14]) [%]	inhibition at 500 µM (Pseudomonas aeruginosa [15]) [%]	inhibition at 1000 µM (Escherichia coli [16]) [%]	inhibition at 1000 µM (Pseudomonas aeruginosa [17]) [%]	inhibition at 1000 µM (Escherichia coli [18]) [%]	inhibition at 1000 µM (Pseudomonas aeruginosa [19]) [%]	inhibition at 500 µM (Escherichia coli [20]) [%]	inhibition (Escherichia coli [21]) [%]	inhibition (Pseudomonas aeruginosa [23]) [%]	inhibition (Escherichia coli [25]) [%]	also measured
CC(=O)OC[C@H]1O[C@@H](OC(C)=O)[C@H](NC(=O)Cc2c[nH]c3ccccc23)[C@@H](OC(C)=O)[C@@H]1OC(C)=O	0.5	0	0	24.2	15.1	0	12.5	4.6	0	Non-Toxic	4	0	1.8	0	0	0	2.8	–	–	–	inhibition [6]: 1.5%; inhibition (Pseudomonas aeruginosa [11]): 12.1%; inhibition (Pseudomonas aeruginosa [13]): 12.5%
CCCCCC(=O)N[C@H]1[C@H](OC(C)=O)O[C@H](COC(C)=O)[C@@H](OC(C)=O)[C@@H]1OC(C)=O	–	30.3	20.5	17.2	15.2	3	22.8	6.8	9.5	Non-Toxic	10.5	0	10.8	4.5	16.9	2.7	2.2	14.6	3.5	11.6	inhibition (Pseudomonas aeruginosa [22]): 4%; inhibition (Pseudomonas aeruginosa [11]): 3.1%; inhibition (Pseudomonas aeruginosa [13]): 2.6%; inhibition (Escherichia coli [24]): 6.6%
O=C(Cc1ccc(Br)cc1)N[C@@H]1[C@@H](O)[C@H](O)[C@@H](CO)O[C@H]1O	17.3	0	0	1.1	6.1	0	–	4	0	Non-Toxic	14.3	1.8	5.9	1.6	0	1.8	3	6.5	6.6	15.2	inhibition (Pseudomonas aeruginosa [22]): 15.3%; inhibition [6]: 8.6%; inhibition (Pseudomonas aeruginosa [11]): 2.4%; inhibition (Escherichia coli [24]): 4.6%; inhibition (Escherichia coli [26]): 11.9%
CC(=O)OC[C@H]1O[C@@H](OC(C)=O)[C@H](NC(=O)Cc2ccc(F)cc2)[C@@H](OC(C)=O)[C@@H]1OC(C)=O	45.6	0	0	61.1	0	0	5.7	0	0	Non-Toxic	7.3	0	9.4	0	0	0	11.8	14	5.9	17.1	inhibition (Pseudomonas aeruginosa [22]): 7.4%; inhibition (Pseudomonas aeruginosa [13]): 4.3%; inhibition (Escherichia coli [24]): 1.3%; inhibition (Escherichia coli [26]): 14.1%
CCCCCCCCCC(=O)N[C@H]1[C@H](OC(C)=O)O[C@H](COC(C)=O)[C@@H](OC(C)=O)[C@@H]1OC(C)=O	46.9	30.6	12.8	35.5	15.9	0	17.2	0	10.2	Non-Toxic	7	0	12.6	1.2	0	7.8	11.1	–	10.2	48.1	inhibition (Pseudomonas aeruginosa [13]): 7.8%; inhibition (Escherichia coli [24]): 5.1%
CC(=O)OC[C@H]1O[C@@H](OC(C)=O)[C@H](NC(=O)Cc2ccc(C(F)(F)F)cc2)[C@@H](OC(C)=O)[C@@H]1OC(C)=O	19.3	0	0	61.7	0	0	7	0	0	Non-Toxic	9.2	0	1.1	0	0	0	0.9	13	2.5	11.3	inhibition (Pseudomonas aeruginosa [22]): 20.1%; inhibition (Pseudomonas aeruginosa [11]): 5.9%; inhibition (Pseudomonas aeruginosa [13]): 5.6%; inhibition (Escherichia coli [24]): 27.2%; inhibition (Escherichia coli [26]): 8.6%
O=C(Cc1ccc(Cl)cc1)N[C@@H]1[C@@H](O)[C@H](O)[C@@H](CO)O[C@H]1O	15.3	0	0	2.8	4.5	1.3	8.7	0	0	Non-Toxic	3.4	0	7.4	0	0	0	11.2	2	–	4.3	inhibition [6]: 11.9%; inhibition (Pseudomonas aeruginosa [11]): 7%; inhibition (Pseudomonas aeruginosa [13]): 7%; inhibition (Escherichia coli [24]): 4.6%; inhibition (Escherichia coli [26]): 5.6%
O=C(Cc1ccc(F)cc1)N[C@@H]1[C@@H](O)[C@H](O)[C@@H](CO)O[C@H]1O	5.1	0	0	–	15.8	0	2.9	0	0	Non-Toxic	29	1.4	8.8	3	0	0	19.4	3.6	9.2	12.6	inhibition (Pseudomonas aeruginosa [22]): 31.3%; inhibition [6]: 6.6%; inhibition (Escherichia coli [24]): 2%; inhibition (Escherichia coli [26]): 2.4%
CCCCCC(=O)CC(=O)N[C@H]1[C@H](OC(C)=O)O[C@H](COC(C)=O)[C@@H](OC(C)=O)[C@@H]1OC(C)=O	19.5	9.2	0	–	20.8	0	2.5	0	0	Non-Toxic	8.9	4.2	13.2	0	2.3	0	2.3	2.1	4.9	7.9	inhibition (Pseudomonas aeruginosa [22]): 18.9%; inhibition [6]: 1.9%; inhibition (Pseudomonas aeruginosa [11]): 3.3%; inhibition (Escherichia coli [26]): 7.7%

— ChEMBL document CHEMBL3875216, “Synthesis of antimicrobial glucosamides as bacterial quorum sensing mechanism inhibitors” (Bioorg Med Chem, 2017)
